# Reference: patent publication US12496329B2, “Methods of using and compositions including an incretin analog” (Eli Lilly and Company, priority 2021, dated 2025)
# Like-named read-outs stand apart in the source and are kept apart here.
# What was measured:
# [1] = MAD study in individuals with diabetes: safety and tolerability; format: in vivo, human
# Source text: (§1) Studies are designed to evaluate the safety, tolerability, PD and PK of the GGG tri-receptor agonist (SEQ ID NO:1) in individuals with diabetes. The MAD study is a randomized, investigator- and participant-blind, placebo-controlled, multiple-ascending dose, single-site study conducted in individuals with diabetes (i.e., females or males aged 20-70 years, inclusive, with T2DM for at least 3 months and HbA1c at lead-in and screening of ≥7.0% and ≤10.5% and treated with diet and exercise alone or a stable dose of metformin for at least 3 months prior to screening, with stable body weight for 3 months prior to randomization and with a BMI of 23-50 kg/m^2 at screening).
# (§2) Dose escalation of the GGG tri-receptor agonist is assessed over 12 weeks in cohorts with a starting dose of 0.5 mg. One cohort of 13 individuals is administered 0.5 mg for 12 weeks. A second cohort of 13 individuals is administered 1.5 mg for 12 weeks. A third cohort of 15 individuals is administered 3.0 mg for 12 weeks. A fourth cohort of 15 individuals is administered 3.0 mg for 4 weeks and then administered 6.0 mg for 8 weeks. A fifth cohort of 16 individuals is administered 3.0 mg for 2 weeks, administered 6.0 mg for 2 weeks, administered 9.0 mg for 4 weeks, and then administered 12 mg for 4 weeks. Alternate dose increment steps may be introduced based on emerging safety and tolerability data from the preceding cohorts, and the dose increment steps can be reduced. As a non-limiting example, in Cohort 4, escalation from starting dose of 3 mg may occur via a step-through dose of 4.5 mg before attaining 6 mg, in Cohort 5, escalation from starting dose of 3 to 12 mg may occur via an additional step through dose level of 4.5 mg, prior to the planned doses 6 and 9 mg. In addition to these proposed alternate regimens in Cohort 4 and Cohort 5, planned dose for escalation between cohorts and within cohorts may be further reduced if warranted by safety or tolerability data.
# In the event of drug hypersensitivity reactions (immediate or nonimmediate), samples are collected for antidrug antibody (ADA) analysis as close to the onset of the event as possible, at the resolution of the event, and 30 days following the onset of the event. Samples are analyzed using a validated electrochemiluminescence immunosorbent assay at BioAgilytix Labs (Durham, NC).
# [2] = Stability of analyte in stored plasma samples (bioanalytical validation); format: in vitro ADME, human; conditions: about -20° C. and about −70° C.
# Method: Bioanalytical methods: plasma samples are analyzed at Q2 Solutions (Ithaca, NY). The samples are analyzed for the GGG tri-receptor agonist using a validated liquid chromatography high resolution mass spectrometry method. The lower limit of quantification is 1.00 ng/mL and the upper limit of quantification is 500.00 ng/ml. Samples above a limit of quantification are diluted and reanalyzed to yield results within the calibrated range. The intra-assay accuracy (% relative error) during validation ranges from −6.3% to 15.7%. The intra-assay precision (% relative standard deviation) during validation is ≤14.7%. The GGG tri-receptor agonist is stable for up to 96 days when stored at about-20° C. and about −70° C.
# [3] = MAD study in individuals with diabetes: plasma pharmacokinetics; format: in vivo, human; conditions: for AUC(0-inf) / Cmax / Tmax / half-life / CL/F: both sexes, human, plasma
# Source text: as §1, §2
# Blood samples are collected on Day 1 at pre-dose and at 12 hr, 24 hr, 48 hr (Day 2) and 72 hr post-dose, as well as at pre-dose on Days 7, 14 and 21, to determine plasma concentration of the GGG tri-receptor agonist. Blood samples also are collected on Day 29 at pre-dose and at 12 hr, 24 hr, 48 hr and 72 hr post-dose, as well as at pre-dose on Days 36, 43 and 50, to determine plasma concentration of the GGG tri-receptor agonist. Blood samples also are collected on Day 57 at pre-dose and at 12 hr, 24 hr, 48 hr and 72 hr post-dose, as well as at pre-dose on Days 64 and 71, to determine plasma concentration of the GGG tri-receptor agonist. Blood samples also are collected on Day 78 at pre-dose and at 12 hr, 24 hr, 48 hr and 72 hr post-dose, as well as at pre-dose on Day 85, to determine plasma concentration of the GGG tri-receptor agonist. Human plasma samples from individuals administered the GGG tri-receptor agonist are analyzed at Q2 Solutions (Ithaca, NY). Concentrations of the GGG tri-receptor agonist are assayed using a validated liquid chromatography high resolution mass spectrometry method, where the lower limits of quantification are 1 ng/ml or 3 ng/ml and the upper limit of quantification is 500 ng/mL.
# Blood samples are likewise collected at Weeks 14 and 16 for PK analysis. As above, plasma concentrations are used to compute PK parameters using standard non-compartmental methods in a validated software program (Phoenix WinNonlin Version 8.1).
# [4] = 12 mg, 3.0, 6.0, 9.0, 12.0 mg QW, Day 1
# [5] = 12 mg, 3.0, 6.0, 9.0, 12.0 mg QW, Day 29
# [6] = 12 mg, 3.0, 6.0, 9.0, 12.0 mg QW, Day 57
# [7] = 12 mg, 3.0, 6.0, 9.0, 12.0 mg QW, Day 78
structure (smiles),measurement,setting,value
"CC[C@H](C)[C@H](NC(=O)[C@H](Cc1ccccc1)NC(=O)[C@H](C)NC(=O)C(C)(C)NC(=O)[C@H](CCC(N)=O)NC(=O)[C@H](C)NC(=O)[C@H](CCCCNC(=O)COCCOCCNC(=O)CC[C@H](NC(=O)CCCCCCCCCCCCCCCCCCC(=O)O)C(=O)O)NC(=O)[C@H](CCCCN)NC(=O)[C@H](CC(=O)O)NC(=O)[C@H](CC(C)C)NC(=O)[C@](C)(CC(C)C)NC(=O)[C@@H](NC(=O)[C@H](CO)NC(=O)[C@H](Cc1ccc(O)cc1)NC(=O)[C@H](CC(=O)O)NC(=O)[C@H](CO)NC(=O)[C@@H](NC(=O)[C@H](Cc1ccccc1)NC(=O)[C@@H](NC(=O)CNC(=O)[C@H](CCC(N)=O)NC(=O)C(C)(C)NC(=O)[C@@H](N)Cc1ccc(O)cc1)[C@@H](C)O)[C@@H](C)O)[C@@H](C)CC)C(=O)N[C@@H](CCC(=O)O)C(=O)N[C@@H](Cc1ccc(O)cc1)C(=O)N[C@@H](CC(C)C)C(=O)N[C@@H](CC(C)C)C(=O)N[C@@H](CCC(=O)O)C(=O)NCC(=O)NCC(=O)N1CCC[C@H]1C(=O)N[C@@H](CO)C(=O)N[C@@H](CO)C(=O)NCC(=O)N[C@@H](C)C(=O)N1CCC[C@H]1C(=O)N1CCC[C@H]1C(=O)N1CCC[C@H]1C(=O)N[C@@H](CO)C(N)=O [GGG tri-receptor agonist, Y-Aib-QGTFTSDYSI-αMeL-LDKK((2-[2-(2-amino-ethoxy)-ethoxy]-acetyl)-(γGlu)-CO-(CH2)18-CO2H)AQ-Aib-AFIEYLLEGGPSSGAPPPS-NH2]",systolic blood pressure,[1]; 6.0 mg and 12.0 mg arms,dose-dependent decrease in systolic blood pressure
same,"GI events (nausea, diarrhea, vomiting)",[1]; MAD study,mostly mild in severity and dose related
same,heart rate,[1]; MAD study,Dose-dependent increases in heart rate
same,tolerability,"[1]; MAD study, 12 weeks QW",well tolerated
same,incidences of AEs,[1]; doses of ≥6.0 mg,increased incidences of AEs
same,safety concerns,[1]; multiple SC doses of 0.5 to 12.0 mg,no unexpected safety concerns
same,tolerability,"[1]; once-weekly 0.5, 1.5 and 3.0 mg for 12 weeks",well tolerated
same,stability when stored,[2],up to 96 days
same,AUC (0-τ) and Cmax dose proportionality,"[3]; 3.0, 6.0 and 12.0 mg, Week 12",increase in a dose-proportional manner
same,AUC(0-inf),"[3]; 0.5 mg, 0.5 mg QW, Day 1",7180 ng·h/mL
same,Cmax,"[3]; 0.5 mg, 0.5 mg QW, Day 1",54.1 ng/mL
same,Tmax,"[3]; 0.5 mg, 0.5 mg QW, Day 1",48 h
same,AUC(0-inf),"[3]; 0.5 mg, 0.5 mg QW, Day 29",14400 ng·h/mL
same,Cmax,"[3]; 0.5 mg, 0.5 mg QW, Day 29",118 ng/mL
same,Tmax,"[3]; 0.5 mg, 0.5 mg QW, Day 29",23.8 h
same,AUC(0-inf),"[3]; 0.5 mg, 0.5 mg QW, Day 57",11800 ng·h/mL
same,Cmax,"[3]; 0.5 mg, 0.5 mg QW, Day 57",86.8 ng/mL
same,Tmax,"[3]; 0.5 mg, 0.5 mg QW, Day 57",36 h
same,AUC(0-inf),"[3]; 1.5 mg, 1.5 mg QW, Day 1",22600 ng·h/mL
same,Cmax,"[3]; 1.5 mg, 1.5 mg QW, Day 1",228 ng/mL
same,Tmax,"[3]; 1.5 mg, 1.5 mg QW, Day 1",24 h
same,AUC(0-inf),"[3]; 1.5 mg, 1.5 mg QW, Day 29",35900 ng·h/mL
same,Cmax,"[3]; 1.5 mg, 1.5 mg QW, Day 29",252 ng/mL
same,Tmax,"[3]; 1.5 mg, 1.5 mg QW, Day 29",24 h
same,AUC(0-inf),"[3]; 3 mg, 3.0 mg QW, Day 1",33800 ng·h/mL
same,Cmax,"[3]; 3 mg, 3.0 mg QW, Day 1",290 ng/mL
same,Tmax,"[3]; 3 mg, 3.0 mg QW, Day 1",23.8 h
same,AUC(0-inf),"[3]; 3 mg, 3.0 mg QW, Day 29",68100 ng·h/mL
same,Cmax,"[3]; 3 mg, 3.0 mg QW, Day 29",531 ng/mL
same,Tmax,"[3]; 3 mg, 3.0 mg QW, Day 29",12.2 h
same,AUC(0-inf),"[3]; 3 mg, 3.0 mg QW, Day 57",66300 ng·h/mL
same,Cmax,"[3]; 3 mg, 3.0 mg QW, Day 57",562 ng/mL
same,Tmax,"[3]; 3 mg, 3.0 mg QW, Day 57",24 h
same,AUC(0-inf),"[3]; 3 mg, 3.0 mg QW, Day 78",70100 ng·h/mL
same,Cmax,"[3]; 3 mg, 3.0 mg QW, Day 78",571 ng/mL
same,Tmax,"[3]; 3 mg, 3.0 mg QW, Day 78",12.2 h
same,half-life,"[3]; 3 mg, 3.0 mg QW, Day 78, read-out: t½ (converted)",137 h
same,AUC(0-inf),"[3]; 6 mg, 3.0, 6.0 mg QW, Day 1",34500 ng·h/mL
same,Cmax,"[3]; 6 mg, 3.0, 6.0 mg QW, Day 1",292 ng/mL
same,Tmax,"[3]; 6 mg, 3.0, 6.0 mg QW, Day 1",24 h
same,AUC(0-inf),"[3]; 6 mg, 3.0, 6.0 mg QW, Day 29",86400 ng·h/mL
same,Cmax,"[3]; 6 mg, 3.0, 6.0 mg QW, Day 29",711 ng/mL
same,Tmax,"[3]; 6 mg, 3.0, 6.0 mg QW, Day 29",12.1 h
same,AUC(0-inf),"[3]; 6 mg, 3.0, 6.0 mg QW, Day 57",136000 ng·h/mL
same,Cmax,"[3]; 6 mg, 3.0, 6.0 mg QW, Day 57",1170 ng/mL
same,Tmax,"[3]; 6 mg, 3.0, 6.0 mg QW, Day 57",24 h
same,AUC(0-inf),"[3]; 6 mg, 3.0, 6.0 mg QW, Day 78",137000 ng·h/mL
same,Cmax,"[3]; 6 mg, 3.0, 6.0 mg QW, Day 78",1060 ng/mL
same,Tmax,"[3]; 6 mg, 3.0, 6.0 mg QW, Day 78",24 h
same,half-life,"[3]; 6 mg, 3.0, 6.0 mg QW, Day 78, read-out: t½ (converted)",135 h
same,AUC(0-inf),[3]; [4],31800 ng·h/mL
same,Cmax,[3]; [4],265 ng/mL
same,Tmax,[3]; [4],23.9 h
same,AUC(0-inf),[3]; [5],150000 ng·h/mL
same,Cmax,[3]; [5],1320 ng/mL
same,Tmax,[3]; [5],23.8 h
same,AUC(0-inf),[3]; [6],262000 ng·h/mL
same,Cmax,[3]; [6],2070 ng/mL
same,Tmax,[3]; [6],24 h
same,AUC(0-inf),[3]; [7],293000 ng·h/mL
same,Cmax,[3]; [7],2410 ng/mL
same,Tmax,[3]; [7],23.9 h
same,half-life,"[3]; 12 mg, 3.0, 6.0, 9.0, 12.0 mg QW, Day 78, read-out: t½ (converted)",143 h
same,Tmax,"[3]; MAD study, after dosing",12 to 72 h
same,half-life,"[3]; MAD study, read-out: mean half-life",~144 h
same,half-life,"[3]; subcutaneous, across all dose levels, read-out: geometric mean t½",135 to 143 h
same,CL/F,"[3]; 3.0 mg QW, Day 78",0.713 mL/min
same,CL/F,"[3]; 3.0, 6.0 mg QW, Day 78",0.728 mL/min
same,CL/F,"[3]; 3.0, 6.0, 9.0, 12.0 mg QW, Day 78",0.683 mL/min
